According to US11976054B2, “Amide derivative and preparation method therefore and use thereof in medicine” (Chengdu Baiyu Pharmaceutical Co., Ltd., priority 2019, dated 2024):

Assays:
[1] = Pharmacokinetic analysis of compounds in rats; assay type: in vivo, SD rats; conditions: for F %: po 10 mg/kg vs iv 1 mg/kg
Method: Healthy adult SD rats weighing 180-220 g were fasted (free access to water) overnight and divided into tail vein administration group and intragastric administration group. The tail vein administration group was subjected to blood collection of 0.1 mL from orbital venous plexus before the administration and 5 min, 15 min, 0.5 h, 1 h, 2 h, 4 h, 8 h, 12 h and 24 h after the administration, and plasma was separated out by centrifugation at 4° C. for 5 min and stored at −20° C. for test. The intragastric administration group was subjected to blood collection of 0.1 mL from orbital venous plexus before the administration and 5 min, 15 min, 0.5 h, 1 h, 2 h, 4 h, 8 h, 12 h and 24 h after the administration, and the subsequent treatment procedures were the same as those of the tail vein injection group. The concentration of parent drug in the plasma was determined by LC-MS/MS.

[2] = system: Rat dorsal air pouch models; assay: Rat dorsal air pouch pharmacodynamic models (sodium urate); assay type: in vivo, SD rats; conditions: air pouch exudate 5 h after 1% sodium urate; for IL-1β concentration in exudate: ELISA
Method: Healthy adult male SD rats weighing 180-220 g were purchased, and rat dorsal air pouch models were constructed after adaptive feeding of the rats. On day 1, day 4 and day 7 of modeling, 20 mL of sterile air was injected subcutaneously into the back of rats by means of injection needles, and the air pouch was maintained at an inflated state. On day 8, 50 mg/kg compound or vehicle control was administered intragastrically. 5 mL of 1% sodium urate suspension was injected into the dorsal air pouch, and air pouch exudate was collected 5 h later. 40 μL of the exudate was taken for leukocyte counting. The remaining exudate was centrifuged at 1500 rpm for 20 min, and the supernatant was collected to detect the expression level of IL-1β by ELISA (BD, Human IL-1β ELISA Set II, Cat #557953).

[3] = system: Human monocyte cell line THP-1; assay: Detection of THP-1 cell pyroptosis (Caspase-Glo 1 Inflammasome Assay); assay type: cell-based; conditions: 20 nM PMA 48 h, 1 μg/mL LPS, compound 3 h
How it was run: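 Differentiated with 20 nM PMA for 48 h (50,000 cells/well), then given serum-free medium with 1 μg/mL LPS and compound in a 10-point, 3-fold series from 10 μM for 3 h at 37 °C. Caspase-1 activity read with Caspase-Glo 1 Inflammasome kit; IC50 calculated.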

[4] = system: IL-1β release in human PBMCs; assay: Assay of IL-1β release in human PBMCs; assay type: cell-based; conditions: 10 ng/mL LPS 3 h, compound 0.5 h, 5 mM ATP 1 h, ELISA
Method: 5 mL of human venous whole blood from a healthy donor was placed in a Li-heparin tube. PBMCs were isolated and incubated in a culture medium containing 10 ng/mL LPS at 37° C./5% CO2 for 3 h. Cells were plated in a 96-well plate at 50 μL per well. 25 μL of compound or solvent control was added to each well and 3-fold diluted in gradient from a maximum concentration of 10 μM, and 8 gradient concentrations were set. The mixtures were incubated for 0.5 h. 25 μL of ATP at a final concentration of 5 mM was added to each well, and the resulting mixtures were incubated for 1 h. After the incubation, the mixtures were centrifuged at 1500 rpm for 20 min, and the supernatant was collected to detect the expression level of […] by ELISA (BD, Human IL-1β ELISA Set II, Cat #557953). IC50 was calculated using GraphPad Prism7.0 software. The results are shown in Table 2, which indicate that: the compounds disclosed herein down-regulate release of mature IL-1β by inhibiting the activity of Caspase-1, and the IC50 is <50 nM.

[5] = SD rats, iv (tail vein), 1 mg/kg, plasma
[6] = SD rats, po (intragastric), 10 mg/kg, plasma
[7] = Homo sapiens, THP-1, THP-1 pyroptosis

Molecule | AUC [1, 5] [ng·h/mL] | Cl [1, 5] [mL/min/kg] | Vss [1, 5] [L/kg] | t1/2 [1, 5] [h] | F % ([1]; SD rats) [%] | AUC [1, 6] [ng·h/mL] | Cmax [1, 6] [ng/mL] | t1/2 [1, 6] [h] | Leukocyte concentration (10^6/mL) ([2]; 50 mg/kg intragastric) | IL-1β concentration in exudate ([2]; 50 mg/kg intragastric) [pg/mL] | IC50 ([3]; THP-1 pyroptosis) [nM] | IC50 [4] [nM] | other results
C[C@@H](c1ccc2c(c1NC(=O)NS(=N)(=O)c1cc(C(C)(C)O)co1)CCC2)C1CC1 (mixture of isomers) [Compound 6-1, (RS, RC)- and (SS, RC)-N-((5-(-1-cyclopropylethyl)-2,3-dihydro-1H-inden-4-yl)carbamoyl)-4-(2-hydroxypropan-2-yl)furan-2-sulfonimidamide] | 6312 | 2.7 | 0.26 | 1.6 | 65.8 | 41521 | 13900 | 2.5 | 1.99 ± 0.4 10^6/mL | 895.7 ± 266.4 | ≤ 100 | – | –
CC(c1ccc2c(c1NC(=O)NS(=N)(=O)c1cc(C(C)(C)O)co1)CCC2)C1CC1 (racemic) [Compound 8-1, (RS, SC)- and (SS, SC)-N-((5-(1-cyclopropylethyl)-2,3-dihydro-1H-inden-4-yl)carbamoyl)-4-(2-hydroxypropan-2-yl)furan-2-sulfonimidamide] | 2557 | 6.8 | 0.296 | 0.74 | 56.2 | 14367 | 6397 | 2.4 | 2.25 ± 0.5 10^6/mL | 1522.5 ± 313.2 | ≤ 100 | 26.3 | –
CC(C)(O)c1coc(S(=N)(=O)NC(=O)Nc2c(CC3CCC3)ccc3c2CCC3)c1 (single isomer, unassigned) [Compound 18-2, RS- and SS-N-((5-(cyclobutylmethyl)-2,3-dihydro-1H-inden-4-yl)carbamoyl)-4-(2-hydroxypropan-2-yl)furan-2-sulfonimidamide] | – | – | – | – | – | – | – | – | 1.72 ± 0.3 10^6/mL | 795.5 ± 232.8 | ≤ 100 | 11.2 | AUC ([1]; rat, in vivo, iv, 1 mg/kg): 3691 ng·h/mL; Cl ([1]; rat, in vivo, iv, 1 mg/kg): 5.6 mL/min/kg; Vss ([1]; rat, in vivo, iv, 1 mg/kg): 0.346 L/kg; t1/2 ([1]; rat, in vivo, iv, 1 mg/kg): 0.86 h; AUC ([1]; rat, in vivo, po, 10 mg/kg): 28427 ng·h/mL; Cmax ([1]; rat, in vivo, po, 10 mg/kg): 16600 ng/mL; t1/2 ([1]; rat, in vivo, po, 10 mg/kg): 3.1 h
C[C@@H](c1cc(F)c2c(c1NC(=O)N[S@@](=N)(=O)c1cc(C(C)(C)O)co1)CCC2)C1CC1 (single isomer, unassigned) [Compound 42-2] | – | – | – | – | – | – | – | – | – | – | – | – | IC50 ([4]; PBMC): 3.2 nM; AUC ([1]; SD, rat, in vivo, iv, 1 mg/kg): 1980 ng·h/mL; Vd ([1]; SD, rat, in vivo, iv, 1 mg/kg): 0.503 L/kg; clearance ([1]; SD, rat, in vivo, iv, 1 mg/kg): 8.6 mL/min/kg; half-life ([1]; SD, rat, in vivo, iv, 1 mg/kg): 0.79 h; bioavailability ([1]; SD, rat, in vivo, po): 87.2%; AUC ([1]; SD, rat, in vivo, po, 10 mg/kg): 17300 ng·h/mL; Cmax ([1]; SD, rat, in vivo, po, 10 mg/kg): 8500 ng/mL; half-life ([1]; SD, rat, in vivo, po, 10 mg/kg): 2.1 h; IC50 [3, 7]: ≤ 100 nM
C[C@H](c1cc(F)c2c(c1NC(=O)N[S@@](=N)(=O)c1cc(C(C)(C)O)co1)CCC2)C1CC1 (single isomer, unassigned) [Compound 44-2] | – | – | – | – | – | – | – | – | – | – | – | – | IC50 ([4]; PBMC): 16.3 nM; AUC ([1]; SD, rat, in vivo, iv, 1 mg/kg): 1620 ng·h/mL; Vd ([1]; SD, rat, in vivo, iv, 1 mg/kg): 0.537 L/kg; clearance ([1]; SD, rat, in vivo, iv, 1 mg/kg): 10.5 mL/min/kg; half-life ([1]; SD, rat, in vivo, iv, 1 mg/kg): 0.93 h; bioavailability ([1]; SD, rat, in vivo, po): 89.1%; AUC ([1]; SD, rat, in vivo, po, 10 mg/kg): 14500 ng·h/mL; Cmax ([1]; SD, rat, in vivo, po, 10 mg/kg): 6380 ng/mL; half-life ([1]; SD, rat, in vivo, po, 10 mg/kg): 2.4 h; IC50 [3, 7]: ≤ 100 nM
COc1cc2c(c(OC)c1OC)-c1ccc(OC)c(=O)cc1[C@@H](NC(C)=O)CC2 [Colchicine, reference compound] | – | – | – | – | – | – | – | – | – | – | – | – | Leukocyte concentration (10^6/mL) ([2]; 30 mg/kg): 3.40 ± 0.7 10^6/mL; IL-1β concentration in exudate ([2]; 30 mg/kg): 1190.9 ± 463.6 pg/mL
Cc1oc(S(=N)(=O)NC(=O)Nc2c(CC3CCC3)ccc3c2CCC3)cc1C(C)(C)O (stereo not shown) [Compound 21-1, RS- and SS-N-((5-(cyclobutylmethyl)-2,3-dihydro-1H-inden-4-yl)carbamoyl)-4-(2-hydroxypropan-2-yl)-5-methylfuran-2-sulfonimidamide] | – | – | – | – | – | – | – | – | – | – | ≤ 100 | 26.2 | AUC ([1]; rat, in vivo, iv, 1 mg/kg): 2404 ng·h/mL; Cl ([1]; rat, in vivo, iv, 1 mg/kg): 7.4 mL/min/kg; Vss ([1]; rat, in vivo, iv, 1 mg/kg): 0.371 L/kg; t1/2 ([1]; rat, in vivo, iv, 1 mg/kg): 0.65 h; AUC ([1]; rat, in vivo, po, 10 mg/kg): 37246 ng·h/mL; Cmax ([1]; rat, in vivo, po, 10 mg/kg): 12717 ng/mL; t1/2 ([1]; rat, in vivo, po, 10 mg/kg): 2.3 h
(RS, RC)- and (SS, RC)-N-((5-(1-cyclopropylethyl)-2,3-dihydro-1H-inden-4-yl-7-d)carbamoyl)-4-(2-hydroxypropan-2-yl)furan-2-sulfonimidamide [Compound 31-2] | – | – | – | – | – | – | – | – | – | – | ≤ 100 | 25 | –
(RS, SC)- and (SS, SC)-N-((5-(1-cyclobutylethyl)-2,3-dihydro-1H-inden-4-yl)carbamoyl)-4-(2-hydroxypropan-2-yl)furan-2-sulfonimidamide [Compound 82-1] | 2228 | 11.2 | 0.379 | 0.70 | 74.0 | 16478 | 5883 | 2.3 | – | – | 100 to 500 | 5.2 | –
RS- and SS-N-((5-(cyclobutylmethyl)-2,3-dihydro-1H-inden-4-yl-7-d)carbamoyl)-4-(2-hydroxypropan-2-yl)furan-2-sulfonimidamide [Compound 39-1] | – | – | – | – | – | – | – | – | – | – | ≤ 100 | 31.7 | –
